The subject of data set [1] is MCF7. Put plainly: Antiproliferative activity against human MCF7 cells assessed as cell growth inhibition incubated for 48 hrs by MTT assay. Conditions: for IC50: Homo sapiens, MCF7, 48 h. The data set is classed as functional, cell-based.
For a further data set, the target named is Tubulin. Put plainly: Inhibition of tubulin polymerization (unknown origin). It counts as protein-complex assay, Homo sapiens.
The test system of a further data set is MDA-MB-435. Put plainly: Antiproliferative activity against human MDA-MB-435 cells. It counts as functional, cell-based.
The subject of data set [2] is HCT-116. Put plainly: Antiproliferative activity against human HCT-116 cells. It counts as functional, cell-based.
Data set [3] relates to MCF7. Put plainly: Antiproliferative activity against human MCF7 cells. It counts as functional, cell-based.
Another data set has as its system ACHN. Put plainly: Antiproliferative activity against human ACHN cells. The data set is classed as functional, cell-based.
In a further data set the test system is HL-60. Put plainly: Antiproliferative activity against human HL-60 cells. The data set is classed as functional, cell-based.
A further data set concerns HeLa. Put plainly: Antiproliferative activity against human HeLa cells. The data set is classed as functional, cell-based.
Data set [4] has as its system HCT-116. Put plainly: Antiproliferative activity against human HCT-116 cells assessed as cell growth inhibition incubated for 48 hrs by MTT assay. It counts as functional, cell-based. Conditions: HCT-116, 48 h.
Data set [5] is described as follows: Antiproliferative activity against human MCF-10A cells assessed as cell viability incubated for 48 hrs by MTT assay relative to control. It counts as toxicity, cell-based. Set-up: concentration or dose not given beside the values. As to conditions: read-out: Activity.
Data set [6] can be described thus: Selectivity index, ratio of IC50 for antiproliferative activity against human MCF-10A cells to IC50 for antiproliferative activity against human MCF7 cells. It counts as toxicity, cell-based. As to conditions: MCF-10A cells and MCF7 cells, read-out: Ratio IC50.
For data set [7], the system named is A549. Put plainly: Antiproliferative activity against human A549 cells assessed as cell growth inhibition incubated for 48 hrs by MTT assay. As to conditions: A549, 48 h. The data set is classed as functional, cell-based.
Data set [8] in a line: Antiproliferative activity against human MCF-10A cells assessed as cell growth inhibition incubated for 48 hrs by MTT assay. The data set is classed as toxicity, cell-based.
The subject of another data set is MGC-803. Put plainly: Antiproliferative activity against human MGC-803 cells. It counts as functional, cell-based.
Data set [9] concerns A549. Put plainly: Antiproliferative activity against human A549 cells. The data set is classed as functional, cell-based.
The subject of the next data set is SW480. Put plainly: Antiproliferative activity against human SW480 cells. It counts as functional, cell-based.
Another data set concerns NCI-H460. Put plainly: Antiproliferative activity against human NCI-H460 cells. It counts as functional, cell-based.
For data set [10], the system named is MCF7. Put plainly: Inhibition of cell migration in human MCF7 cells assessed as reduction in migration rate incubated upto 48 hrs by scratch wound healing assay. It counts as functional, cell-based.
For data set [11], the system named is MCF7. Put plainly: Antiproliferative activity against human MCF7 cells assessed as reduction in number of colonies incubated for 48 hrs by crystal violet staining based analysis. The data set is classed as functional, cell-based.

Structures are written as SMILES. Activity calls are given as the source filed them. The calls are words filed in the database; no cut-off is given here.

The values below come from ChEMBL document CHEMBL5550179, “Rutaecarpine-inspired scaffold-hopping strategy and Ullmann cross-coupling based synthetic approach: Identification of pyridopyrimidinone-indole based novel anticancer chemotypes” (Bioorg Med Chem, 2024).

On to `COc1ccc2c(c1)c(CCN1C(=O)c3ccccc3C1=O)c(-c1cc(=O)n3ccccc3n1)n2C(=O)OC(C)(C)C`, for which the IC50 in the data set on MCF7 [1] is > 20 µM.

As to `COc1cc(C(=O)NCCc2c(-c3cc(=O)n4ccccc4n3)[nH]c3ccccc23)cc(OC)c1OC`, the IC50 in the data set with MCF7 [1] was > 20 µM.

Turning to `O=C(NCCc1c(-c2cc(=O)n3ccccc3n2)[nH]c2ccccc12)c1ccc(Cl)cc1`, the IC50 in the data set with MCF7 [1] is > 20 µM.

On Tubulin, `COc1cc(C2=NN(C(N)=O)C(c3cn(C)c4ccc(Br)cc34)C2)cc(OC)c1OC` (centres undefined) had an IC50 of 2.12 µM.

For `O=C1c2cc(Cl)ccc2SC2c3[nH]c4ccc(O)cc4c3CCN12` (centres undefined), the IC50 in the data set with MDA-MB-435 and with HCT-116 [2] was < 0.003 µM throughout.

As for `CN1c2ccccc2C(=O)N2CCc3c([nH]c4ccc(Cl)cc34)C21` (centres undefined), the 50% inhibitory concentration (IC50) with MCF7 [3] and in the data set with ACHN was 1 µM throughout.

Regarding `O=c1c2ccccc2nc2n1CCc1c-2[nH]c2c(Cl)c(Cl)ccc12`, the IC50 with HL-60 was determined as 0.15 µM.

In turn, `O=c1c2cc(Cl)ccc2nc2n1CCc1c-2[nH]c2ccccc12` yielded an IC50 in the data set with HeLa of 7 µM.

As to `COc1ccc2c(c1)c(CCNC(=O)c1ccc(Cl)cc1)c(-c1cc(=O)n3ccccc3n1)n2C(=O)OC(C)(C)C`, the half-maximal inhibitory concentration (IC50) was determined as 8.55 µM in the data set on HCT-116 [4], 20 µM with A549 [7] and 14 µM in the data set with MCF7 [1]. In addition, the viability at 48 h in data set [5] came out at 78.6%. In addition, the selectivity ratio in data set [6] is > 2.25. In addition, the IC50 at 48 h in data set [8] is > 20 µM.

Turning to `O=c1c2ccccc2nc2n1CCc1c-2[nH]c2ccccc12` [RUTAECARPINE], the viability at 48 h in data set [5] amounted to 60.2%. Further, the figures for the IC50 in the data set with HeLa, in the data set with A549 [7] and with MCF7 [1] were 26 µM, > 20 µM and > 20 µM, respectively. In addition, in data set [6], the selectivity ratio came out at 1.2. Besides, in data set [8], the IC50 at 48 h is > 20 µM.

As to `O=C(O)c1ccccc1C(=O)NCCc1c(-c2cc(=O)n3ccccc3n2)[nH]c2ccccc12`, the IC50 in the data set with MCF7 [1] was > 20 µM.

`O=c1[nH]cc(F)c(=O)[nH]1` [FLUOROURACIL]: the IC50 with HCT-116 [4] and with A549 [7] was > 20 µM throughout. Moreover, in data set [5], the viability at 48 h stood at 50%. Besides, in [6], the selectivity ratio turned out to be 3. Also, the IC5 in the data set on MCF7 [1] (time 48 hrs) turned out to be 6.5 µM. Besides, in data set [8], the IC50 at 48 h came to 19.5 µM.

On to `CC(C)(C)OC(=O)n1c(-c2cc(=O)n3ccccc3n2)c(CCNC(=O)c2ccc(Cl)cc2)c2ccccc21`, for which the values for the IC50 in the data set on HCT-116 [4], in the data set with A549 [7] and in the data set on MCF7 [1] were > 20 µM, > 20 µM and 15.8 µM, respectively. In addition, the viability at 48 h in data set [5] is 83.4%. Moreover, the selectivity ratio in [6] was > 2.11. For the same compound, the IC50 at 48 h in data set [8] is > 20 µM.

On to `CN1c2ccccc2C(=O)N2CCc3c([nH]c4ccccc34)C21` (centres undefined), for which the results for the IC50 with MGC-803, in the data set with A549 [9] and in the data set with SW480 were 12 µM, 1.3 µM and 10 µM, respectively.

Compound `O=C(NCCc1c[nH]c2ccccc12)c1ccc(-c2ccccc2)cc1` yielded an IC50 with NCI-H460 of 2 µM.

For the compound `COc1ccc2[nH]c(-c3cc(=O)n4ccccc4n3)c(CCN3C(=O)c4ccccc4C3=O)c2c1`, the IC50 with MCF7 [1] is > 20 µM.

Turning to `COc1ccc2[nH]c(-c3cc(=O)n4ccccc4n3)c(CCNC(=O)c3cc(OC)c(OC)c(OC)c3)c2c1`, in the data set with MCF7 [1], the IC50 was > 20 µM.

With `COc1ccc(C(=O)NCCc2c(-c3cc(=O)n4ccccc4n3)n(C(=O)OC(C)(C)C)c3ccccc23)cc1`, the inhibition result in the data set with MCF7 [10] is “Active”. For the same compound, the IC50 worked out at 11 µM in the data set on HCT-116 [4], 18.4 µM in the data set on A549 [7] and 7.7 µM in the data set on MCF7 [1]. Also, the viability at 48 h in data set [5] was determined as 61.6%. The selectivity ratio in data set [6] is > 3.2. Moreover, in the data set with MCF7 [11], the outcome was Active. In data set [8], the IC50 at 48 h was > 20 µM.

On to `COc1ccc(C(=O)NCCc2c(-c3cc(=O)n4ccccc4n3)[nH]c3ccc(OC)cc23)cc1`, for which, in the data set with MCF7 [1], the IC50 was > 20 µM.

In the case of `CC(C)(C)OC(=O)n1c(-c2cc(=O)n3ccccc3n2)c(CCN2C(=O)c3ccccc3C2=O)c2ccccc21`, in the data set on MCF7 [1], the IC50 was > 20 µM.

Compound `O=c1cc(-c2ccc(Cl)cc2)nc2ccccn12` showed an IC50 in the data set on MCF7 [3] of 1.8 µM.

`O=C1c2ccccc2C(=O)N1CCc1c(-c2cc(=O)n3ccccc3n2)[nH]c2ccccc12`: in the data set with MCF7 [1], the concentration for half-maximal inhibition (IC50) was > 20 µM.

For the compound `COc1ccc2[nH]c(-c3cc(=O)n4ccccc4n3)c(CCNC(=O)c3ccc(Cl)cc3)c2c1`, in the data set on MCF7 [1], the IC50 was > 20 µM.
